Assay [1] deals with subcutaneous teratomas comprising ALINK-modified mouse C2 cells. Nature of the assay: Teratoma assay, ALINK-modified mouse C2 ES cells. The assay is classed as in vivo. On the procedure: (§1) Matrigel Matrix High Concentration (Corning) was diluted 1:3 with cold DMEM media on ice. 5-10×10^6 cells were suspended into 100 ul of 66% DMEM+33% Matrigel media and injected subcutaneously into either or both dorsal flanks of B6N mice (for mouse C2 ES cells) and NOD-SCID mice (for human ES cells). Teratomas formed 2-4 weeks after injection. Teratoma size was measured by caliper, and teratoma volume was calculated using the formula V=(L×W×H)π/6. GCV/PBS treatment was performed by daily injection with 50 mg/kg into the peritoneal cavity with different treatment durations. At the end of treatment, mice were sacrificed and tumors were dissected and fixed in 4% paraformaldehyde for histology analysis.

Assay [2] concerns subcutaneous teratomas comprising ALINK-modified H1 ES cells. Nature of the assay: Teratoma assay, ALINK-modified human ES cells. Format: in vivo, mouse (human ES cell graft). The conditions noted are these: NOD scid gamma mouse hosts; two rounds of GCV (15 days + 40 days). On the procedure: as §1
Assay [3] deals with ALINK-modified MMTV-PyMT-transformed mammary epithelial tumorigenic cell grafts. Put plainly: Mammary gland tumor assay. Format: in vivo, mouse. As to conditions: B6N hosts; GCV 50 mg/kg every other day i.p. An excerpt:
Chimeras of Cdk1^+/+, +/loxp-alink mouse C2 ES and CD-1 backgrounds were generated through diploid aggregation, and then were bred with B6N WT mice to generate Cdk1^+/+, +/loxp-alink mice through germline transmission. Cdk1^+/+, +/loxp-alink mice were bred with Ella-Cre mice to generate Cdk1^+/+, +/alink mice. Cdk1^+/+, +/alink mice were then bred with MMTV-PyMT mice (Guy et al., 1992) to get double-positive pups with mammary gland tumors and ALINK modification. Mammary gland tumors with fail-safe modification were isolated, cut into 1 mm^3 pieces, and transplanted into the 4th mammary gland of wild-type B6N females. GCV/PBS treatment was injected every other day at the dosage of 50 mg/kg into the peritoneal cavity with different treatment durations. Mammary gland tumor size was measured by calipers and calculated with the formula V=Length*Width*Height*π/6.

Assay [4] has as its system mixed culture of non-dividing neurons and dividing NEPs derived from Cdk1+/+,+/alink human CA1 ES cells. Put plainly: Neuronal progenitor vs. neuron killing assay. Format: cell-based. As to conditions: GCV 10 uM every other day for 20 days. As to the method:
Cdk1^+/+, +/alink human CA1 ES cells were differentiated to neural epithelial progenitor cells (NEPs). NEPs were subsequently cultured under conditions for differentiation into neurons, thereby generating a mixed culture of non-dividing neurons and dividing NEPs, which were characterized by immunostaining of DAPI, Ki67 and Sox2. GCV (10 uM) was provided to the mixed culture every other day for 20 days. Then, GCV was withdrawn from culture for 4 days before cells were fixed by 4% PFA. Fixed cells were immunostained for proliferation marker Ki67 to check whether all the leftover cells have exited cell cycle, and mature neutron marker beta-TublinIII.

The test system of assay [5] is homozygous Cdk1 dox-bridge knock-in mouse ES cells. Put plainly: Targeted cell growth of Cdk1 dox-bridge (EARC) ES cells. The conditions noted are these: withdrawal of doxycycline. The assay is classed as cell-based. As to the method: F3-bridge targeted cells were trypsinized and plated on gelatinized 24 well plates at a density of 5×10^4 cells per well. Starting one day after plating, cell counting was performed by trypsinizing 3 wells for each condition and counting live cells using a Countess automated cell counter (Life Technologies). Doxycycline was removed or reduced to 0.05 ng/ml 2 days after plating and live cells were counted every day up to 18 days in the different conditions.

For assay [6], the system named is Top2a-EARC ES cells. Put plainly: Targeted cell growth of Top2a-EARC ES cells. The conditions noted are these: withdrawal of doxycycline. Format: cell-based, mouse. On the procedure: Top2a homozygously-targeted cells were trypsinized and plated on gelatinized 24 well plates at a density of 5×10^4 cells per well. Starting one day after plating, cells were exposed to different Dox concentrations (1 μg/ml, 0.5 μg/ml, 0.05 μg/ml and 0 μg/ml), the plate was analyzed in a IncucyteZoom system (Essen Bioscience) by taking pictures every two hours for 3-4 days and measuring confluency.

For assay [7], the system named is Cenpa-EARC ES cells. Put plainly: Targeted cell growth of Cenpa-EARC ES cells. Format: cell-based, mouse. The conditions noted are these: withdrawal of doxycycline. As to the method: Cenpa homozygously-targeted cells were trypsinized and plated on gelatinized 24 well plates at a density of 5×10^4 cells per well. Starting one day after plating, cells were exposed to different Dox concentrations (1 μg/ml, 0.5 μg/ml, 0.05 μg/ml and 0 μg/ml), the plate was analyzed in a IncucyteZoom system (Essen Bioscience) by taking pictures every two hours for 3-4 days and measuring confluency.

Assay [8] concerns Birc5-EARC ES cells. Nature of the assay: Targeted cell growth of Birc5-EARC ES cells. Format: cell-based, mouse. As to conditions: withdrawal of doxycycline. As to the method: Birc5 homozygously-targeted cells were trypsinized and plated on gelatinized 24 well plates at a density of 5×10^4 cells per well. Starting one day after plating, cells were exposed to different Dox concentrations (1 μg/ml, 0.5 μg/ml, 0.05 μg/ml and 0 μg/ml), the plate was analyzed in a IncucyteZoom system (Essen Bioscience) by taking pictures every two hours for 3-4 days and measuring confluence.

Assay [9] has as its system Eef2-EARC ES cells. Nature of the assay: Targeted cell growth of Eef2-EARC ES cells. Format: cell-based, mouse. As to conditions: withdrawal of doxycycline. On the procedure: Eef2 homozygously-targeted cells were trypsinized and plated on gelatinized 24 well plates at a density of 5×10^4 cells per well. Starting one day after plating, cells were exposed to different Dox concentrations (1 μg/ml, 0.5 μg/ml, 0.05 μg/ml and 0 μg/ml), the plate was analyzed in a IncucyteZoom system (Essen Bioscience) by taking pictures every two hours for 3-4 days and measuring confluence.

The conditions of assay [10]: cited from earlier work.

The values below come from US20180044686A1, “TOOLS AND METHODS FOR USING CELL DIVISION LOCI TO CONTROL PROLIFERATION OF CELLS” (Sinai Health System, priority 2015, published 2018).

Regarding `Nc1nc(O)c2ncn(COC(CO)CO)c2n1` [GCV, ganciclovir], in assay [1] (GCV 50 mg/kg daily i.p.), the “effect on quiescent cells of the teratoma” value is on record as “did not affect quiescent cells of the teratoma” and the teratoma growth result is reported as “stops teratoma growth”. In assay [1] (brief (3 week) GCV treatment period), the teratoma dormancy entry is given as “sufficient to render the teratomas dormant”. In addition, the teratoma dormancy entry in [2] is “rendered the teratomas to dormancy”. Further, the “mammary gland tumor dormancy” value in assay [3] is on record as “able to render the mammary gland tumors to dormancy”. Further, in assay [4], the “killing of dividing NEPs” value is “killed the dividing NEPs” and the “killing of non-dividing neurons” value was “did not kill the non-dividing neurons”.
Consider `C[C@H]1c2cccc(O)c2C(=O)C2=C(O)[C@]3(O)C(=O)C(C(N)=O)=C(O)[C@@H](N(C)C)[C@@H]3[C@@H](O)[C@@H]21` [doxycycline], for which the “time to complete elimination of mitotically active ES cells” value in assay [5] is recorded as ≤ 5 days; in assay [6], ≤ 4 days; in assay [7] it was ≤ 4 days; in assay [8], ≤ 4 days; in assay [9], ≤ 4 days.
Regarding Bms1, the “CS score (CRISPR score average provided in Wang et al., 2015)” value in assay [10] (gene locus (predicted CDL), CRISPR score average) is −1.36.
In the case of Ppan, in [10] (CRISPR score average provided in Wang et al., 2015, score of the gene locus (predicted CDL)), the CS score is listed as −1.62.
